Where two headings read alike, the source gives them in different places.
Key:
2.2.15 cells = conditions: β-L-FTC; Schinazi et al. Antimicrob. Agent Chem (1994) 38, 2172; cited from earlier work
HBV [1] = conditions: β-L-FTC, Schinazi et al. 1994, cited from earlier work
[2] = Cytotoxicity in 2.2.15 cells (uptake of neutral red dye); format: cell-based; conditions: human, nine daily additions
Description: (§1) The antiviral activities and cytotoxicity of a macromolecular prodrug of Dextran-araA made according to the teachings in Example 40 and the parent nucleoside analog araA were evaluated using […] (obtained from transfection of the Hep G2 human hepatoblastoma cell line with HBV) as described by Korba and Gerin (Korba B E, Gerin J L., Antiviral Research 1992; 19:55-70.) It is standard system widely used to compare the safety and efficacy of drugs for the treatment of HBV. The data for β-L-FTC,a nucleoside analog with pharmacological properties similar to Lamivudine (3TC), in the same system are shown for comparison. Lamivudine is a recently developed nucleoside analog that has been approved by the U.S. FDA for the treatment of HIV and has shown promise in extensive clinical trials against HBV
Briefly, the test compounds were added to confluent cultures of 2.2.15 cells every 24 hours for nine consecutive days in fresh culture media (RPMI 1640 with 2% fetal bovine serum, Gibco Inc., Grand Island N.Y. U.S.A.). The amount of extracellular HBV virion DNA and intracellular HBV replication intermediates were determined using quantitative blot hybridization analyses (dot, Southern and northern blots, respectively, Korba B E, Gerin J L., Antiviral Research 1992; 19:55-70; Korba B E, Milman., Antiviral Research 1991; 15:217-228). […]

HBV [3] = experiment: Antiviral activity on HBV replication in 2.2.15 cells (blot hybridization of virion DNA and replicative intermediates); format: cell-based; conditions: for EC90: Hepatitis B virus, 90% inhibition of viral replication
Description: A common method of evaluating the success of antiviral and anticancer agents is by measuring the efficacy and toxicity in tissue culture systems. The antiviral activity of the macromolecular prodrug made according to the teachings in Example 40 was evaluated in […], a common assay for evaluating efficacy and toxicity of agent for Hepatitis B, as described in detail in Example 42.
as §1
Briefly, the test compounds were added to confluent cultures of 2.2.15 cells every 24 hours for nine consecutive days in fresh culture media (RPMI 1640 with 2% fetal bovine serum, Gibco Inc., Grand Island N.Y. U.S.A.). The amount of extracellular HBV virion DNA and intracellular HBV replication intermediates were determined using quantitative blot hybridization analyses (dot, Southern and northern blots, respectively, Korba B E, Gerin J L., Antiviral Research 1992; 19:55-70; Korba B E, Milman., Antiviral Research 1991; 15:217-228).
Efficacy was determined by the concentrations of agent giving 90% inhibition of viral replication (EC90) as measured in changes of HBV virion DNA and replicative intermediates. Cytotoxicity caused by the agents was measured by the uptake of neutral red dye. The cytotoxic concentration (CC50), was considered to be the concentration at which 50% of the cells took up due the dye. The selectivity index (SI, CC50 /EC90) is measure of drug toxicity in relation to drug efficacy.

[4] = background art; cited from earlier work
[5] = Intracellular RI DNA (values in parentheses)

Nc1nc(=O)n([C@@H]2CS[C@H](CO)O2)cc1F [β-L-FTC]
CC50 (2.2.15 cells): 746 µM | EC90 (HBV [1]; Extracellular DNA): 1100 nM | SI (CC50/EC90) (HBV [1]; Extracellular DNA): 678 | EC90 (HBV [1]; Intracellular RI DNA): 390 nM | SI (CC50/EC90) (HBV [1]; Intracellular RI DNA): 1913

Nc1ncnc2c1ncn2[C@@H]1O[C@H](CO)[C@@H](O)[C@@H]1O [araA]
CC50 [2]: 188 ± 20 µM | SI (CC50/EC90) (HBV [3]; Extracellular DNA): 11 | EC90 (HBV [3]; Extracellular DNA (HBV virion)): 17 ± 1.9 µM | EC90 (HBV [3]; [5]): 25 ± 2.1 µM | SI (CC50/EC90) (HBV [3]; [5]): 7.5 | SI (rounded) (HBV [3]; text statement on the SI of Table 3): about 10

O=c1[nH]cnc2c1ncn2[C@@H]1O[C@H](CO)[C@@H](O)[C@@H]1O [arahypoxanthine]
antiviral effect [4]: little antiviral effect
